Results reported in patent US9927424B2, “Assays for identifying compounds that modulate bitter taste” (Chromocell Corporation, priority 2013, dated 2018).

Tests used:
[1] = molecular target: T1, TAS2R38 (PAV) (Homo sapiens, UniProt P59533, A49P/I296V); test: Calcium fluorescence functional assay, TAS2R38 (PAV) cell line with mouse Gα15; type: cell-based; conditions: for TAS2R38 (PAV) bitter receptor activity (functional response): 20 mM tastant, change in intracellular calcium; for EC50: approximately, increasing concentrations of tastant
T1 construct: expressed in transfected cells
T1 sequence (P59533 1-333 A49P/I296V): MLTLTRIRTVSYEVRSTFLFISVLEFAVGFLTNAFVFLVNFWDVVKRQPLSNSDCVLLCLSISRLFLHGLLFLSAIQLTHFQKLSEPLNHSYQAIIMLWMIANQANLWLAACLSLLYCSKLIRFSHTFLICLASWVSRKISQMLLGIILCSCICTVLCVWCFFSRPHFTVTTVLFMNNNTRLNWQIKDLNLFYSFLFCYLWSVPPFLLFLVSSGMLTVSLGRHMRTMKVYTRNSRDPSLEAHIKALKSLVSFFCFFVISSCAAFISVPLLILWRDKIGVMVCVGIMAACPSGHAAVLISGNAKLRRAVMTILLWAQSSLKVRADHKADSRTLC
Protocol: (§1) A panel of cell lines expressing eight specific bitter taste receptors, a subset of the panel of twenty-five bitter receptors described in International Patent Application Publication WO 2010/088633 (see, e.g., Example 26), was used for the purpose of these analyses. Accordingly, each cell line of the panel expressed a human bitter taste receptor and mouse Gα15 signaling protein.
(§2) Each of the Examples below utilized the following functional assay: • Day 1: Stable cell lines were seeded onto black wall/clear bottom 96-well, plates (e.g., Corning, 3904). Approximately 40K cells were added per well and incubated at 37° C., 5% CO2 overnight in cell growth media (DMEM (Sigma, D5796) supplemented with 10% Fetal Bovine Serum (Sigma, 5178), 2 mM Glutamine (Sigma, G7513)). • Day 2: Growth media was discarded and cells were incubated at 37° C., 5% CO2 for 60 minutes in 100 ul of load solution containing 1× Ca-3 dye (Molecular Devices, R8090), 1% DMSO in buffer containing 130 mM NaCl, 2 mM CaCl2, 5 mM KCl, 1.2 mM MgCl2, 10 mM HEPES and 10 mM Glucose (pH 7.0). Probenecid was not included in the load solution. • Functional assay: After dye loading, cell plates were placed in a fluorescent plate reader (e.g., FDSS6000 (Hamamatsu, Japan)) and receptor stimulation was measured by adding 50 ul of 3× concentrated ligand/agonist stock. Fluorescence was monitored continuously for 10 s before agonist addition and for 100-250 s after stimulation with agonist.
(§3) Receptor Activation is defined as follows: • % Activation=[((Maximum signal fluorescence−Minimum signal fluorescence)−(Maximum control fluorescence−Minimum control fluorescence))/(Maximum buffer fluorescence−Minimum buffer fluorescence)]*100 • Functional Response=[(Maximum signal fluorescence−Minimum signal fluorescence)−(Maximum control fluorescence−Minimum control fluorescence)] • Signal fluorescence: refers to the change in fluorescence seen with addition of ligand • Control fluorescence: refers to the change in fluorescence seen with addition of buffer (negative control) • Calcium signals from ligand and control were normalized to the basal fluorescence of the cells prior to the stimulation.
(§4) A concentration analysis was performed and EC50 values were calculated by nonlinear regression using the formula: Y=Bottom+(Top−Bottom)/(1+10^((Log EC50−X)*Hill Slope)), X=log of dose or concentration, Y=Response (increasing as X increases), Top=maximum signal, Bottom=minimum signal. EC50 (half maximal effective concentration) refers to the molar concentration of the agonist which produces 50% of the maximum possible effective response from that agonist.

[2] = molecular target: T2, TAS2R39 (Homo sapiens, UniProt P59534); test: Calcium fluorescence functional assay, TAS2R39 cell line with mouse Gα15; type: cell-based; conditions: for TAS2R39 bitter receptor activity (functional response): 20 mM tastant, change in intracellular calcium; for EC50: approximately, increasing concentrations of tastant
T2 construct: expressed in transfected cells
T2 sequence (P59534 1-338): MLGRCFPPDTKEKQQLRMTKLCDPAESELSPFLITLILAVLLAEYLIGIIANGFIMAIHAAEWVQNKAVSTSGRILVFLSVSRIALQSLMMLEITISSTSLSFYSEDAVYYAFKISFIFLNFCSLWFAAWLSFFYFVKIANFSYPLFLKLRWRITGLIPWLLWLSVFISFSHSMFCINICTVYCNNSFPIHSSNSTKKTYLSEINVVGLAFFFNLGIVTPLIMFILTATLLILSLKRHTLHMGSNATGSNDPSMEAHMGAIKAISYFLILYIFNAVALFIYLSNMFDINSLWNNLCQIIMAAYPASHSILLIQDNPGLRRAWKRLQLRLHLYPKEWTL
Protocol: as §1, §2, §3, §4

[3] = molecular target: T3, TAS2R13 (Homo sapiens, UniProt Q9NYV9); conditions: PCT/US12/61400; cited from earlier work
T3 construct: expressed in transfected cells
T3 sequence (Q9NYV9 1-303): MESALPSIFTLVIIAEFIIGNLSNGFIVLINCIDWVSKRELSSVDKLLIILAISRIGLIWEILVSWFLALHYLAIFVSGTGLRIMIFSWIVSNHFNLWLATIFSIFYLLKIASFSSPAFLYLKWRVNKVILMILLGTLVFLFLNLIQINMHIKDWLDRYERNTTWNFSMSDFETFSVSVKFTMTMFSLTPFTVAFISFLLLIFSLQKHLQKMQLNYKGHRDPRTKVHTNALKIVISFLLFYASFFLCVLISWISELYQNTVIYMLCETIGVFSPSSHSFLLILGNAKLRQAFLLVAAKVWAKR

[4] = molecular target: T4, TAS2R60 (Homo sapiens, UniProt P59551); conditions: PCT/US12/61400; cited from earlier work
T4 construct: expressed in transfected cells
T4 sequence (P59551 1-318): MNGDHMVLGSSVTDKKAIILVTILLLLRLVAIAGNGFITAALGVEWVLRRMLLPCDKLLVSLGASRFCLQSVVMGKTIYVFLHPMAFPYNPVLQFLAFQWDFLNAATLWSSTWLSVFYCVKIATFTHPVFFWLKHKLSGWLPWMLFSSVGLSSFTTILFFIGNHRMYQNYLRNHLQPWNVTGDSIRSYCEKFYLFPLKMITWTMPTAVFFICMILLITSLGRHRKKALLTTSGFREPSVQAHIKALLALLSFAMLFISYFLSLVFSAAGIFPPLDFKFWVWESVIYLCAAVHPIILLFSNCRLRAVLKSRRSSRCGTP

[5] = molecular target: T4, TAS2R60; test: Calcium fluorescence functional assay, TAS2R60 cell line with mouse Gα15; type: cell-based; conditions: for TAS2R60 bitter receptor activity (functional response): 20 mM tastant, change in intracellular calcium, data for potassium nitrate and potassium phosphate (dibasic) preliminary; for EC50: approximately, increasing concentrations of tastant
Protocol: Accordingly, each cell line of the panel expressed a human bitter taste receptor and mouse Gα15 signaling protein.
Probenecid was not included in the load solution. • Functional assay: After dye loading, cell plates were placed in a fluorescent plate reader (e.g., FDSS6000 (Hamamatsu, Japan)) and receptor stimulation was measured by adding 50 ul of 3× concentrated ligand/agonist stock. Fluorescence was monitored continuously for 10 s before agonist addition and for 100-250 s after stimulation with agonist.
as §3
A concentration analysis was performed and EC50 values were calculated by nonlinear regression using the formula: Y=Bottom+(Top−Bottom)/(1+10^((Log EC50−X)*Hill Slope)), X=log of dose or concentration, Y=Response (increasing as X increases), Top=maximum signal, Bottom=minimum signal.

Row | SMILES | TAS2R38 (PAV) bitter receptor activity (functional response) [1] | EC50 [1] [mM] | TAS2R39 bitter receptor activity (functional response) [2] | EC50 [2] [mM] | TAS2R13 response to stimulation, previously shown [3] | TAS2R60 response to stimulation, previously shown [4] | TAS2R60 bitter receptor activity (functional response) [5] | EC50 [5] [mM]
1 | [Cl-].[K+] [KCl] | strongly and specifically responded | 5 to 15 | strongly and specifically responded | 5 to 15 | specifically respond | specifically respond | – | –
2 | CC(=O)[O-].[K+] [potassium acetate] | did not induce | – | did not induce | – | – | – | induced | 5 to 10
3 | O=C([O-])c1ccccc1.[K+] [potassium benzoate] | induced | 5 to 10 | induced | 5 to 10 | – | – | induced | 5 to 10
4 | O=C([O-])[C@H](O)[C@@H](O)[C@H](O)[C@H](O)CO.[K+] [potassium gluconate] | induced | – | induced | – | – | – | did not induce | –
5 | O=[N+]([O-])[O-].[K+] [potassium nitrate] | induced | – | induced | – | – | – | induced | –
6 | O=P([O-])([O-])O.[K+].[K+] [potassium phosphate (dibasic)] | induced | – | induced | – | – | – | induced | –
7 | C/C=C/C=C/C(=O)[O-].[K+] [potassium sorbate] | induced | – | induced | – | – | – | induced | –
8 | O=S(=O)([O-])[O-].[K+].[K+] [potassium sulfate] | induced | – | induced | – | – | – | induced | –
